In this experiment the test system is Chlamydia pneumoniae. In words: Growth inhibition of Chlamydia pneumoniae at 10 uM. The class given is functional. Particulars: read-out: GI.
For the compound `Cc1ccccc1-c1nc2ccccc2[nH]1`, the inhibition of growth at 10 µM stood at 59%.
Next, `O=C(Nc1ccccc1)c1ccccn1`: 36%.
In the case of `O=C(Nc1ccccc1)c1ccco1`, the inhibition of growth at 10 µM came out at 45%.
Turning to `O=C(Nc1ccccc1)c1cscn1`, the inhibition of growth at 10 µM is 39%.
Regarding `O=C(Nc1ccccc1)c1ccccc1C(F)(F)F`, the inhibition of growth at 10 µM was 96%.
For `O=C(Nc1ccccc1)c1ccoc1`, the inhibition of growth at 10 µM was determined as 78%.
Next, `O=C(Nc1ccccc1)c1cccs1`: 89%; `c1ccc(-c2nc3ccccc3o2)cc1` [2-PHENYLBENZO[D]OXAZOLE]: 61%; `O=C(Nc1ccccc1)c1ccccc1F`: 0%.
As for `Cn1cccc1C(=O)Nc1ccccc1`, the inhibition of growth at 10 µM came to 80%.
Next, `COc1ccccc1C(=O)Nc1ccccc1`: 0%.
With `Cn1c(-c2ccccc2)nc2ccccc21` the figure was 0%.
Regarding `c1ccc(-c2nc3ccccc3[nH]2)cc1`, the inhibition of growth at 10 µM is 89%.
With `O=C(Nc1ccccc1)c1ccccc1` [N-PHENYLBENZAMIDE] the figure was 99%; with `Cc1ccccc1C(=O)Nc1ccccc1`, 99%; with `O=C(Nc1ccccc1)c1ccsc1`, 68%.
